Tests used:
[1] = tested on: acetylation of histone H3; test: Western blot of acetylated histones in bone marrow after HDACi administration (HDACi activity); format: in vivo, mouse; details: 10 h after first dose and 5 h after second dose, s.c., TSA 0.5 + 0.5 mg/kg, VPA 600 + 300 mg/kg
Method: […] or spleens were harvested at 10 h.
TSA is not selective and is expected to increase acetylation of histones non-specifically. FIG. 1 is a graph showing the acetylation of histone H3 relative to a beta-actin control in test samples. […] Bars indicate individual mice.

BALB/c mice = test: Lethality / survival after total-body irradiation (TBI); format: in vivo
Method: All studies were performed with prior approval and in accordance with institutional and national standards of animal care. The studies were approved by an Institutional Animal Care and Use Committee (“IACUC”) and were performed in an accredited AAALAC facility. Male BALB/c mice (Charles River Laboratories) 8 to 10 weeks old were allowed to acclimate for 1 week prior to the start of the study. Mice were maintained in environment-controlled (temperature and lighting) animal facilities, provided food and water ad libitum, and randomly assigned to experimental groups.
TBI was delivered using a 185 TBq (5000 Ci) ^137Cs source (Mark I, J. L. Shepherd and Associates, San Fernando, Calif.). Doses ranged from sublethal exposures of 5.5 Gy to lethal exposures of 6.5 Gy and a supralethal exposure of 7.0 Gy. The dose rate was approximately 1 Gy per minute.
Survival was measured in mice after TBI with and without HDACi. Groups of mice were exposed to 6.5 or 7.0 Gy alone or in combination with HDACi, as described above. Survival was defined as the time from irradiation to the time of euthanasia, which occurred when animals had lost 20% or more of their body weight.

SMILES: CC(/C=C/C(=O)NO)=C\[C@@H](C)C(=O)c1ccc(N(C)C)cc1 [TSA, trichostatin-A]
- increase in acetylated form of histone H3 relative to the beta-actin control [1]: three to four-fold increase
- survival (BALB/c mice; 7 Gy TBI, TSA 0.5 mg/kg 24 h before TBI (FIG. 5)): increased survival
- lethality (time for mice to lose 20% or more of their weight) (BALB/c mice; after TBI): reduce lethality in a dose-dependent manner

Source: US20100256233A1, “SYSTEMS, METHODS AND COMPOSITIONS FOR REDUCTION OF INJURY FROM RADIATION EXPOSURE” (priority 2007, published 2010)
